Measured values published in patent US8148391B2 (Cephalon, Inc., priority 2006, dated 2012).
Read-outs that look alike come from different tables or passages of the source. Values belong to the compound of their own block, whether it stands above or below them.

Columns and labels:
[1] = biological target: T1, baculovirus-expressed ALK (Homo sapiens, UniProt Q9UM73); test: ALK Kinase Assay (ELISA-type, time-resolved fluorescence); type: biochemical
T1 construct: host or cells: baculovirus expression system
Summary of the method: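 Substrate coating: phospholipase C-γ, 10 μg/mL in TBS. Kinase step: 30 ng/ml ALK, 15 min, 37° C. Detection and analysis: Eu-N1 PT66 antibody, with IC50 fitted as a sigmoidal variable-slope dose-response curve.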

[2] = biological target: T2, c-Met (cytoplasmic domain) (Homo sapiens, UniProt P08581); test: c-Met Kinase Assay (same methods as for ALK, with modifications); type: biochemical
T2 construct: 10 ng/mL c-Met (cytoplasmic domain, Invitrogen Corporation #PV3143); purchased Invitrogen Corporation PV3143
Summary of the method: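 This plate-based kinase format uses immobilized phospholipase C-γ as substrate, phosphorylated by c-Met cytoplasmic domain (10 ng/mL) at 37° C for 15 minutes.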

[3] = ALK kinase inhibition, 1 μM ATP, read-out: ALK Activity
[4] = c-Met kinase inhibition, 1 μM ATP, read-out: cMet Activity
[5] = ALK kinase inhibition, 1 μM ATP (Km level), read-out: ALK Activity
[6] = c-Met kinase inhibition, 1 μM ATP (Km level), read-out: cMet Activity
[7] = 1 μM ATP (Km level), 30 ng/ml ALK, 37° C., 15 minutes, read-out: ALK Activity (ALK kinase inhibition, IC50 class)
[8] = 1 μM ATP (Km level), 10 ng/mL c-Met, read-out: cMet Activity (c-Met kinase inhibition, IC50 class)
[9] = 1 μM ATP (Km level), read-out: ALK Activity (ALK Kinase Inhibition, IC50)
[10] = 1 μM ATP (Km level), read-out: cMet Activity (c-Met Kinase Inhibition, IC50)

T1 sequence (Q9UM73 19-1620): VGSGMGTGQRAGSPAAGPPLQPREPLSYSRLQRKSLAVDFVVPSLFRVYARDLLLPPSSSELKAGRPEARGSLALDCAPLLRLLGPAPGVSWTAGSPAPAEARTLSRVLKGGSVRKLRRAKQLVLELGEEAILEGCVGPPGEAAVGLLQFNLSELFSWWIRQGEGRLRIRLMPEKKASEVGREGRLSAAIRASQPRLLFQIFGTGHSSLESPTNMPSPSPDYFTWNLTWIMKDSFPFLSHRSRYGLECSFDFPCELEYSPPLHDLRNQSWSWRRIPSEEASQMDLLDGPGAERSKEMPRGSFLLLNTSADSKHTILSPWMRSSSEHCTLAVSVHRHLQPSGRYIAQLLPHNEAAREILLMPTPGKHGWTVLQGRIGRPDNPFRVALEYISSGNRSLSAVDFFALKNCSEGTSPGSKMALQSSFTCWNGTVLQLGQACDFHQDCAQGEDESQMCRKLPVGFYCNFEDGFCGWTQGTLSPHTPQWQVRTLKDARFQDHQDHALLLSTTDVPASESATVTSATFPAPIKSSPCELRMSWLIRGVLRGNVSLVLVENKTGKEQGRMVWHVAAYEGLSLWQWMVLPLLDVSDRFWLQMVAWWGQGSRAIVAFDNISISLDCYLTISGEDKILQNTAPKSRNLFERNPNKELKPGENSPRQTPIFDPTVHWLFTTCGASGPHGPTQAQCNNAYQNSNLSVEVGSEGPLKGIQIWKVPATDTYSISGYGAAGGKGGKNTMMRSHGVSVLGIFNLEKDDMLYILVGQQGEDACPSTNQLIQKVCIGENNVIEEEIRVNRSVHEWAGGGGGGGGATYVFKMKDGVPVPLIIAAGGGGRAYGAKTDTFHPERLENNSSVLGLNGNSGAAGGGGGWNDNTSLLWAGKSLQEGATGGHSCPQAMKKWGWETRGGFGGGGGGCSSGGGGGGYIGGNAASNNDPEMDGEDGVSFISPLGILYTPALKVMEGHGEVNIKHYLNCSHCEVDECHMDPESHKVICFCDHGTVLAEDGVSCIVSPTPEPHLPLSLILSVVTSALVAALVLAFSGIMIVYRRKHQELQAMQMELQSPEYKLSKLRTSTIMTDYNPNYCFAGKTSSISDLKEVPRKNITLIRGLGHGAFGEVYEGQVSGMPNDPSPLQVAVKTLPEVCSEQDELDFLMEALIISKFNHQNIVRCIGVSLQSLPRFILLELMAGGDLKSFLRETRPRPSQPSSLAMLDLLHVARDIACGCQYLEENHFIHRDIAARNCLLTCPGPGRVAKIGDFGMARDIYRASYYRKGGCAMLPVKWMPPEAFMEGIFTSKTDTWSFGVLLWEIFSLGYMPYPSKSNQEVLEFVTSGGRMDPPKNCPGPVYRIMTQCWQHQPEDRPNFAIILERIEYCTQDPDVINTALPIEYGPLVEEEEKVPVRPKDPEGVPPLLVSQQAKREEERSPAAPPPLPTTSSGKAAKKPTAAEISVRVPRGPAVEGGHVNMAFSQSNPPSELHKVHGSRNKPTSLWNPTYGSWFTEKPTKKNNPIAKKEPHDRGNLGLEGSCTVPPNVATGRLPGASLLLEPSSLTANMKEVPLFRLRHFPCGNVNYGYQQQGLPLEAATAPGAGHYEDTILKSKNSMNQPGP
T2 sequence (P08581 956-1390 limits assumed): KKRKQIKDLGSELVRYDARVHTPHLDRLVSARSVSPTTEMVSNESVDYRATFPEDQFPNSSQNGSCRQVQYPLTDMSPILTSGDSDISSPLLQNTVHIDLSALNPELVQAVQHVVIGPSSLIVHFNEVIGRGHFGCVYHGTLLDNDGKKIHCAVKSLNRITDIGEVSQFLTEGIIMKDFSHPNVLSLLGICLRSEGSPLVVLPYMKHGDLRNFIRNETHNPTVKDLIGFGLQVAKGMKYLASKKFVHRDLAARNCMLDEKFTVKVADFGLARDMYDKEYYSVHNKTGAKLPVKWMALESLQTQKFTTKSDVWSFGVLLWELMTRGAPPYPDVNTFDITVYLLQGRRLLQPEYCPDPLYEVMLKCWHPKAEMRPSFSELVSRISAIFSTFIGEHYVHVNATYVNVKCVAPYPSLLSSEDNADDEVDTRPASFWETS

Structure (SMILES): CN1CCc2ccc(Nc3ncc(Cl)c(Nc4ccccc4-c4cc[nH]n4)n3)cc2CC1=O [Example 1825, 8-{5-Chloro-4-[2-(1H-pyrazol-3-yl)-phenylamino]-pyrimidin-2-ylamino}-3-methyl-1,3,4,5-tetrahydro-benzo[d]azepin-2-one]
IC50 [1, 3]: > 10000 nM | IC50 [2, 4]: > 10000 nM

Structure (SMILES): CCN1C(=O)CN(C(C)=O)Cc2ccc(Nc3ncc(Cl)c(Nc4ccccc4C(=O)NC)n3)cc21 [Example 1855, 2-[2-(4-Acetyl-1-ethyl-2-oxo-2,3,4,5-tetrahydro-1H-benzo[e][1,4]diazepin-8-ylamino)-5-chloro-pyrimidin-4-ylamino]-N-methyl-benzamide]
IC50 [1, 3]: 1000 to 10000 nM | IC50 [2, 4]: < 100 nM

Structure (SMILES): Cc1noc(-c2cccc(F)c2Nc2nc(Nc3ccc4c(c3)CCOC(=O)N4C)ncc2Cl)n1 [Example 1785, 2-{5-Chloro-4-[2-fluoro-6-(3-methyl-[1,2,4]oxadiazol-5-yl)-phenylamino]-pyrimidin-2-ylamino}-5-methyl-8,9-dihydro-5H-7-oxa-5-aza-benzocyclohepten-6-one]
IC50 [1, 3]: 1000 to 10000 nM | IC50 [2, 4]: 100 to 1000 nM

Structure (SMILES): CNC(=O)c1sccc1Nc1nc(Nc2ccc3c(c2)NC(=O)CCC3)ncc1Cl [Example 1477, 3-[5-Chloro-2-(2-oxo-2,3,4,5-tetrahydro-1H-benzo[b]azepin-8-ylamino)-pyrimidin-4-ylamino]-thiophene-2-carboxylic acid methylamide]
IC50 [1, 3]: 100 to 1000 nM | IC50 [2, 4]: 100 to 1000 nM

Structure (SMILES): COCCN1CCN(C)c2ccc(Nc3ncc(Cl)c(Nc4ccccc4NS(C)(=O)=O)n3)cc2C1 [Example 429, N-(2-{5-Chloro-2-[4-(2-methoxy-ethyl)-1-methyl-2,3,4,5-tetrahydro-1H-benzo[e][1,4]diazepin-7-ylamino]-pyrimidin-4-ylamino}-phenyl)-methanesulfonamide]
IC50 [1, 5]: < 100 nM | IC50 [2, 6]: 100 to 1000 nM

Structure (SMILES): COc1cccnc1-c1ccccc1Nc1nc(Nc2ccc3c(c2)CCC(N2CCOCC2)CC3)ncc1Cl (stereo not shown) [Example 1018, 5-Chloro-N*4*-[2-(3-methoxy-pyridin-2-yl)-phenyl]-N*2*-(7-morpholin-4-yl-6,7,8,9-tetrahydro-5H-benzocyclohepten-2-yl)-pyrimidine-2,4-diamine]
IC50 [1, 7]: < 100 nM | IC50 [2, 8]: 1000 to 10000 nM

Structure (SMILES): COc1cc2c(cc1Nc1ncc(Cl)c(N[C@H]3[C@@H](C(N)=O)[C@@H]4C=C[C@H]3C4)n1)CCN(C(=O)C1COCCO1)CC2 (stereo partly drawn) [Example 635, (1S,2S,3R,4R)-3-{5-Chloro-2-[3-([1,4]dioxane-2-carbonyl)-8-methoxy-2,3,4,5-tetrahydro-1H-benzo[d]azepin-7-ylamino]-pyrimidin-4-ylamino}-bicyclo[2.2.1]hept-5-ene-2-carboxylic acid amide]
IC50 [1, 9]: < 100 nM | IC50 [2, 10]: > 10000 nM

Structure (SMILES): NC(=O)C1C2C=CC(C2)C1Nc1nc(Nc2ccc3c(c2)CNC(=O)NC3)ncc1Cl (stereo not drawn) [Example 228, (2-exo,3-exo)-3-[5-Chloro-2-(3-oxo-2,3,4,5-tetrahydro-1H-benzo[e][1,3]diazepin-7-ylamino)-pyrimidin-4-ylamino]-bicyclo[2.2.1]hept-5-ene-2-carboxylic acid amide]
IC50 [1, 5]: < 100 nM | IC50 [2, 6]: 100 to 1000 nM

Structure (SMILES): CNC(=O)c1ccsc1Nc1nc(Nc2ccc3c(c2)NC(=O)CCC3(C)C)ncc1Cl [Example 1486, 2-[5-Chloro-2-(5,5-dimethyl-2-oxo-2,3,4,5-tetrahydro-1H-benzo[b]azepin-8-ylamino)-pyrimidin-4-ylamino]-thiophene-3-carboxylic acid methyl amide]
IC50 [1, 3]: 1000 to 10000 nM | IC50 [2, 4]: 1000 to 10000 nM

Structure (SMILES): COCCN1CCN(C)c2cc(Nc3ncc(Cl)c(N[C@@H]4CCCC[C@H]4NS(C)(=O)=O)n3)c(OC)cc2C1 [Example 490, N-((1R,2R)-2-{5-Chloro-2-[7-methoxy-4-(2-methoxy-ethyl)-1-methyl-2,3,4,5-tetrahydro-1H-benzo[e][1,4]diazepin-8-ylamino]-pyrimidin-4-ylamino}-cyclohexyl)-methanesulfonamide]
IC50 [1, 5]: < 100 nM | IC50 [2, 6]: > 10000 nM

Structure (SMILES): CCCNC(=O)c1ccccc1Nc1nc(Nc2ccc3c(c2)C(C)(C)CCC(=O)N3)ncc1Cl [Example 1022, 2-[5-Chloro-2-(5,5-dimethyl-2-oxo-2,3,4,5-tetrahydro-1H-benzo[b]azepin-7-ylamino)-pyrimidin-4-ylamino]-N-propyl-benzamide]
IC50 [1, 7]: < 100 nM | IC50 [2, 8]: 100 to 1000 nM

Structure (SMILES): COCCN1CCc2ccc(Nc3ncc(Cl)c(Nc4ccccc4C(=O)NCC4CC4)n3)cc2CC1 [Example 1421, 2-{5-Chloro-2-[3-(2-methoxy-ethyl)-2,3,4,5-tetrahydro-1H-benzo[d]azepin-7-ylamino]-pyrimidin-4-ylamino}-N-cyclopropylmethyl-benzamide]
IC50 [1, 7]: < 100 nM | IC50 [2, 8]: 1000 to 10000 nM

Structure (SMILES): CCN1CC(=O)Nc2cc(Nc3ncc(Cl)c(Nc4c(C)csc4C(=O)NC)n3)ccc2C1 [Example 1865, 3-[5-Chloro-2-(4-ethyl-2-oxo-2,3,4,5-tetrahydro-1H-benzo[e][1,4]diazepin-8-ylamino)-pyrimidin-4-ylamino]-4-methyl-thiophene-2-carboxylic acid methylamide]
IC50 [1, 3]: 100 to 1000 nM | IC50 [2, 4]: 100 to 1000 nM

Structure (SMILES): CS(=O)(=O)N[C@@H]1CCCC[C@H]1Nc1nc(Nc2ccc3c(c2)CCC(NCC(F)F)CC3)ncc1Cl (stereo partly drawn) [Example 662, N-((1R,2R)-2-{5-Chloro-2-[7-(2,2-difluoro-ethylamino)-6,7,8,9-tetrahydro-5H-benzocyclohepten-2-ylamino]-pyrimidin-4-ylamino}-cyclohexyl)-methanesulfonamide]
IC50 [1, 9]: < 100 nM | IC50 [2, 10]: 100 to 1000 nM

The remaining lines, values ahead:

IC50 [1, 3]: 1000 to 10000 nM | IC50 [2, 4]: 1000 to 10000 nM
Structure (SMILES): CC(C)[C@@H](Nc1nc(Nc2ccc3c(c2)CCOC(=O)N3C)ncc1Cl)C(N)=O [Example 1763, (R)-2-[5-Chloro-2-(5-methyl-6-oxo-5,6,8,9-tetrahydro-7-oxa-5-aza-benzocyclohepten-2-ylamino)-pyrimidin-4-ylamino]-3-methyl-butyramide]

IC50 [1, 7]: < 100 nM | IC50 [2, 8]: 100 to 1000 nM
Structure (SMILES): CC1(C)CCC(=O)Nc2ccc(Nc3ncc(Cl)c(Nc4c(F)cccc4C(=O)NCCC#N)n3)cc21 [Example 1041, 2-[5-Chloro-2-(5,5-dimethyl-2-oxo-2,3,4,5-tetrahydro-1H-benzo[b]azepin-7-ylamino)-pyrimidin-4-ylamino]-N-(2-cyano-ethyl)-3-fluoro-benzamide]

IC50 [1, 7]: < 100 nM | IC50 [2, 8]: 1000 to 10000 nM
Structure (SMILES): COc1cc(N(C)C)ccc1Nc1nc(Nc2ccc3c(c2)C(C)(C)CCC(=O)N3C)ncc1Cl [Example 1342, 7-[5-Chloro-4-(4-dimethylamino-2-methoxy-phenylamino)-pyrimidin-2-ylamino]-1,5,5-trimethyl-1,3,4,5-tetrahydro-benzo[b]azepin-2-one]

IC50 [1, 5]: < 100 nM | IC50 [2, 6]: > 10000 nM
Structure (SMILES): COCCN1CCN(C)c2cc(Nc3ncc(Cl)c(NC4C5CCC(C5)C4C(N)=O)n3)c(OC)cc2C1 (stereo not drawn) [Example 491, (2-exo,3-exo)-3-{5-Chloro-2-[7-methoxy-4-(2-methoxy-ethyl)-1-methyl-2,3,4,5-tetrahydro-1H-benzo[e][1,4]diazepin-8-ylamino]-pyrimidin-4-ylamino}-bicyclo[2.2.1]heptane-2-carboxylic acid amide]

IC50 [1, 7]: < 100 nM | IC50 [2, 8]: 100 to 1000 nM
Structure (SMILES): CN1C(=O)CCC(C)(C)c2cc(Nc3ncc(Cl)c(Nc4ccccc4S(C)(=O)=O)n3)ccc21 [Example 1250, 7-[5-Chloro-4-(2-methanesulfonyl-phenylamino)-pyrimidin-2-ylamino]-1,5,5-trimethyl-1,3,4,5-tetrahydro-1-benzazepin-2-one]

IC50 [1, 9]: < 100 nM | IC50 [2, 10]: 1000 to 10000 nM
Structure (SMILES): CC1(C)CCC(=O)Nc2ccc(Nc3ncc(Cl)c(Nc4ccc(N5CCC(C(=O)O)CC5)cc4-n4cccn4)n3)cc21 [Example 629, 1-{4-[5-Chloro-2-(5,5-dimethyl-2-oxo-2,3,4,5-tetrahydro-1H-benzo[b]azepin-7-ylamino)-pyrimidin-4-ylamino]-3-pyrazol-1-yl-phenyl}-piperidine-4-carboxylic acid]

IC50 [1, 3]: < 100 nM | IC50 [2, 4]: > 10000 nM
Structure (SMILES): COc1cc2c(cc1Nc1ncc(Cl)c(N[C@@H]3CCCC[C@H]3NS(C)(=O)=O)n1)NC(=O)CN(C(=O)C(F)(F)F)C2(C)C [Example 1463, N-((1R,2R)-2-{5-Chloro-2-[7-methoxy-5,5-dimethyl-2-oxo-4-(2,2,2-trifluoro-acetyl)-2,3,4,5-tetrahydro-1H-benzo[e][1,4]diazepin-8-ylamino]-pyrimidin-4-ylamino}-cyclohexyl)-methanesulfonamide]

IC50 [1, 9]: < 100 nM | IC50 [2, 10]: 1000 to 10000 nM
Structure (SMILES): COc1c(Nc2ncc(Cl)c(N[C@H]3[C@@H](C(N)=O)[C@@H]4C=C[C@H]3C4)n2)ccc2c1CCC(N1CCCC(O)C1)CC2 (stereo partly drawn) [Example 909, (1S,2S,3R,4R)-3-{5-Chloro-2-[7-(3-hydroxy-piperidin-1-yl)-1-methoxy-6,7,8,9-tetrahydro-5H-benzocyclohepten-2-ylamino]-pyrimidin-4-ylamino}-bicyclo[2.2.1]hept-5-ene-2-carboxylic acid amide]

IC50 [1, 5]: < 100 nM | IC50 [2, 6]: 100 to 1000 nM
Structure (SMILES): CNC(=O)c1ccccc1Nc1nc(Nc2ccc3c(c2)CCN(CC(C)(C)F)CC3)ncc1Cl [Example 39, 2-{5-Chloro-2-[3-(2-fluoro-2-methyl-propyl)-2,3,4,5-tetrahydro-1H-benzo[d]azepin-7-ylamino]-pyrimidin-4-ylamino}-N-methyl-benzamide]
